Test results as given in the supplement of paper PMC12533247.

What was measured:
[1] = test system: primary dermal fibroblasts; experiment: % change in live cells vs DMSO control; higher = less cytotoxic; conditions: time (h post treatment): 48
Experimental: (§1)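 Cytotoxicity in uninfected 2D primary donor keratinocytes (20 h post treatment) and fibroblasts (48 h post treatment), measured with NucSpot live/dead dyes on IncuCyte. Live cells are normalised to the 0.2% DMSO control and shown as % change. Three biological replicates for each of donors 3, 4 and 5.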

primary keratinocytes = experiment: as above; conditions: time (h post treatment): 20
Experimental: as §1

[2] = test system: HSV-1 K26-GFP infected primary human skin cells; experiment: % change of HSV-1 GFP signal vs untreated infected cells; higher = less antiviral inhibition
Experimental: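 2D primary donor-derived keratinocytes (read at 20 hpi) and donor-matched dermal fibroblasts (read at 48 hpi) infected with GFP-HSV-1 K26 at MOI 1 and treated 1 h later with compound dilutions. IncuCyte GFP integrated intensity is normalised by subtracting mock-infected wells and dividing by untreated infected wells, shown as % change (-100 = full inhibition).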

[3] = test system: HSV-1 K26-GFP infected 3D skin equivalent; experiment: % change of tdTomato fibroblast signal relative to infected DMSO control; higher = higher signal (negative = inhibition / toxicity); conditions: time (h post infection): 48
Experimental: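 Triplicate dose-response (0.04 to 10 uM) of 11 top compounds in 3D bioprinted skin equivalents (submerged and ALI models) infected with GFP-HSV-1 K26 at MOI 0.1 and fixed at 48 hpi. GFP (virus) and tdTomato (fibroblast viability) signals are normalised to per-plate controls.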

Cc1nc(N(C)C(=O)Cc2ccc(-c3ccccn3)cc2)sc1S(N)(=O)=O [Pritelivir]
Conditions | % change in live cells, donor: 3 [%] | % change in live cells, donor: 4 [%] | % change in live cells, donor: 5 [%] | % change of tdTomato fibroblast signal, model: ALI [%] | % change of tdTomato fibroblast signal, model: submerged [%]
[1], 0.082305 µM | -10.3 | -2.67 | 7.67 | – | –
[1], 0.246914 µM | -8.67 | -1 | 7.67 | – | –
[1], 0.740741 µM | -8 | -6.33 | 3.67 | – | –
[1], 2.22222 µM | -9 | -2 | 0.667 | – | –
[1], 6.66667 µM | -11 | 1.33 | -1 | – | –
[1], 20 µM | -10 | 7 | -1 | – | –
[1], 60 µM | -10 | 3.33 | -13 | – | –
[3], 0.041152 µM | – | – | – | 16.3 | 11.8
[3], 0.123457 µM | – | – | – | 6.72 | -3.78
[3], 0.37037 µM | – | – | – | 0.531 | 0.74
[3], 1.111111 µM | – | – | – | -3.11 | -3.09
[3], 3.33333 µM | – | – | – | -3.08 | -6.25
[3], 10 µM | – | – | – | 12 | -0.666
primary keratinocytes, 0.082305 µM | -3.33 | -1 | -1.67 | – | –
primary keratinocytes, 0.246914 µM | -6.67 | -18.3 | -7.33 | – | –
primary keratinocytes, 0.740741 µM | -8.33 | -6 | -0.667 | – | –
primary keratinocytes, 2.22222 µM | -6.33 | -4.67 | -5.33 | – | –
primary keratinocytes, 6.66667 µM | -0.667 | -44.3 | 0.333 | – | –
primary keratinocytes, 20 µM | -38 | -28.7 | 7.67 | – | –
primary keratinocytes, 60 µM | -78.3 | -61.7 | -20 | – | –

% change of HSV-1 GFP signal [%], [2]
Conditions | 0.001 µM | 0.003 µM | 0.0091 µM | 0.0274 µM | 0.0823 µM | 0.2469 µM | 0.7407 µM | 2.2222 µM | 6.6667 µM | 20 µM
cell type: primary dermal fibroblasts, donor: 5, time (h post infection): 48 | -6.88 | -8.21 | -6.16 | -14.2 | -21.8 | -61.5 | -88.3 | -99.754 | -99.905 | -99.853
cell type: primary keratinocytes, donor: 3, time (h post infection): 20 | 6.78 | 7.17 | 4.27 | 0.771 | -17.7 | -65.2 | -88.8 | -97.9 | -98.88 | -98.8
cell type: primary keratinocytes, donor: 4, time (h post infection): 20 | 1.71 | 10.5 | 3.75 | -0.535 | -26 | -77.35 | -95.7 | -99.05 | -99.54 | -99.35
cell type: primary keratinocytes, donor: 5, time (h post infection): 20 | 3.7 | 2.94 | 1.99 | -6.85 | -31.7 | -72.3 | -94.1 | -99.54 | -99.63 | -99.66
